# What was measured:
# epidermal cells = conditions: pyramidal CMC-microneedle arrays, 5 mg/g of CMC, arrays removed after 5 minutes, 72 hours of exposure
# Method: Cytoxan® was integrated at a concentration of 5 mg/g of CMC, enabling delivery of approximately about 140 μg per array. This is a therapeutically relevant concentration based on the area of skin targeted, yet well below levels associated with systemic toxicities. Living human skin organ cultures were used to assess the cytotoxicity of Cytoxan®. Cytoxan® was delivered by application of arrays to skin explants as we previously described. Arrays and residual material were removed 5 minutes after application, and after 72 hours of exposure, culture living skin explants were cryo-sectioned and fixed. Apoptosis was evaluated using green fluorescent TUNEL assay (In Situ Cell Death Detection Kit, TMR Green, Roche, cat #:11-684-795-910).
# B16 melanoma = B16 melanoma model: MNA treatment of established cutaneous tumors, tumor growth and survival; conditions: MNAs once weekly for three weeks, established B16 skin tumors; for tumor growth: vs untreated; for survival: untreated 100% mortality, through day 70
# Method: The B16 melanoma model was used as a model tumor to test these novel approaches.
# B16 skin tumors were established in normal mice by injection. Visible established cutaneous tumors were treated once weekly for three weeks with MNAs containing either doxorubicin alone, Poly(I:C) alone, or doxorubicin and Poly(I:C) incorporated into the same MNA. […] Tumor growth and survival were measured regularly for the duration of the study.
# human skin = assay: Apoptosis and necrosis in human skin at the doxorubicin MNA dose; conditions: MNA dose of doxorubicin chosen for the B16 study
# OVA = assay: OVA-specific CTL activity in vivo after CMC-microneedle array immunization; parameters: species or system mice; conditions: pyramidal CMC-microneedle arrays on mouse ears, 5 minutes, boosted one week later
# Excerpt: To directly evaluate the immunogenicity of CMC microneedle array incorporated antigens, the well characterized model antigen ovalbumin was used. Pyramidal arrays were fabricated incorporating either soluble ovalbumin (sOVA), particulate ovalbumin (pOVA), or arrays containing both pOVA along with CpGs. The adjuvant effects of CpGs are well characterized in animal models, and their adjuvanticity in humans is currently being evaluated in clinical trials.
# Immunization was achieved by applying antigen containing CMC-microneedle arrays to the ears of anesthetized mice using a spring-loaded applicator as described above, followed by removal of the arrays 5 minutes after application. These pyramidal microneedle arrays contained about 5 wt % OVA in CMC and about 0.075 wt % (20 μM) CpG. As a positive control, gene gun based genetic immunization strategy using plasmid DNA encoding OVA was used.
# Mice were immunized, boosted one week later, and then assayed for OVA-specific CTL activity in vivo. […] It is well established that similar responses require substantially higher doses of antigen when delivered by traditional needle injection.
# To evaluate the stability of fabricated arrays, batches of arrays were fabricated, stored, and then used over an extended period of time. […]
Compound,tumor growth (B16 melanoma),survival (B16 melanoma),OVA-specific CTL activity in vivo (OVA),other results
"O=P1(N(CCCl)CCCl)NCCCO1 (centres unmarked) [Cytoxan®, cyclophosphamide]",–,–,–,apoptosis of epidermal cells (TUNEL) (epidermal cells): extensive apoptosis of epidermal cells
COc1cccc2c1C(=O)c1c(O)c3c(c(O)c1C2=O)C[C@@](O)(C(=O)CO)C[C@@H]3O[C@H]1C[C@H](N)[C@H](O)[C@H](C)O1 [doxorubicin],slowed tumor growth,30%,–,apoptosis / necrosis in human skin (human skin): induces apoptosis in human skin without causing necrosis
Poly(I:C),slowed tumor growth,50%,–,–
particulate OVA: particulate ovalbumin model antigen incorporated in pyramidal CMC microneedle arrays,–,–,Significant OVA-specific CTL activity,–
soluble OVA: soluble ovalbumin model antigen incorporated in pyramidal CMC microneedle arrays,–,–,Significant OVA-specific CTL activity,–

# — patent US20220193386A1, “MICRONEEDLE ARRAYS FOR CANCER THERAPY APPLICATIONS” (University of Pittsburgh - Of the Commonwealth System of …, priority 2014, published 2022)
